Our source for the EC50, IC50 and outcome values is PubChem BioAssay AID179 (DTP/NCI, 2004).

As a reminder, the EC50 is the concentration that produces a half-maximal response. As a reminder, the IC50 is the point on the concentration scale where inhibition reaches its midpoint. Read a high IC50 as weaker potency in that assay.

For this test, the system named is CEM cells HIV-1 protection, formazan growth assay. The test is described as follows: NCI AIDS Antiviral Assay. Conditions: for IC50: measured here: growth of uninfected CEM cells. Summed up: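 CEM (human) cells, HIV-1 infected vs uninfected, 5-point dosing, formazan growth read-out. Retest threshold 50% protection.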

Activity calls are given as the source filed them.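 Rule for the calls: active = compounds giving half or more protection of infected cells from virus-caused growth loss, again on retest; inactive = the rest.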

Turning to `Nc1nnnn1NC(=O)NCCCl`, the EC50 is more than 200 µM and the IC50 is more than 200 µM.

Regarding `O=c1[nH]nc(Cc2ccccc2)n1C1CC1`, the EC50 was more than 200 µM and the IC50 is more than 200 µM. For `NC1=NN(c2ccccc2)C2(c3ccncc3C(=O)O)C1C(N)=NN2c1ccccc1` (stereo not drawn), the EC50 was more than 200 µM and the IC50 was more than 200 µM. On to `O=C1CCCN(c2ccccc2)N1`, for which the EC50 is more than 1410 µM and the IC50 is more than 1410 µM. Take `CCOC(=O)/C=C/c1ccccc1Br`: the EC50 is more than 38.9 µM and the IC50 is more than 38.9 µM. Regarding `O=C(NC12CC3CC(CC(C3)C1)C2)C(=O)c1c[nH]c2ccc([N+](=O)[O-])cc12`, the EC50 was more than 200 µM and the IC50 was 30.2 µM. Take `Nc1nc(N)c(CCCc2ccccc2)c(N)n1`: the result was inactive. On to `C=C(C)C1Cc2c(cc3c(c2O)c(=O)c2ccccc2n3C)O1` (stereo not drawn), for which the EC50 is more than 200 µM and the IC50 is 1.17 µM. The corresponding values for `C=CC1OC(CCCOC(=O)C(C)(C)C)O[C@@H]1CC` (stereo partly drawn) are more than 200 µM and more than 200 µM.

As for `COP1(=O)CC2C(Cl)(Cl)C2(C)C1` (stereo not drawn), the outcome was inactive.

Turning to `CCOC(=O)CCC1(C(=O)OC)CCCC1=O` (stereo not drawn), the EC50 is more than 1020 µM and the IC50 was more than 1020 µM. Take `Clc1ccc(CN2COc3c(ccc4ccccc34)C2)cc1`: the EC50 is more than 200 µM and the IC50 turned out to be 70.8 µM. As to `CC1(C)OC(=S)N(c2ccccc2)C12C=Cc1cc3ccccc3cc1O2` (stereo not drawn), the EC50 is more than 200 µM and the IC50 was determined as 79.4 µM.

In the case of `S=c1sc2c(n1-c1ccccc1)NC=NC2S` (stereo not drawn), the EC50 is more than 468 µM and the 50% inhibitory concentration (IC50) is 22.9 µM. As to `O=C(/C=C/c1ccc(Cl)cc1)NC1C=Nc2ccc([N+](=O)[O-])cc2NC1=O` (stereo not drawn), the EC50 is more than 200 µM and the IC50 was more than 200 µM.

For `O=[N+]([O-])C(=C(\Cl)NCCO)/C(Cl)=C(/Cl)Br`, the EC50 was more than 20 µM and the IC50 worked out at 1 µM. As to `O=c1[nH]c2ccccc2nc1/C=C/NC(=S)NCc1ccccc1`, the outcome was inactive.

In the case of `[N-]=[N+]=NC[C@H]1OCO[C@H](CN=[N+]=[N-])[C@H]2OCCOCCOc3ccccc3OCCOCCO[C@@H]21`, the EC50 is more than 200 µM and the IC50 is more than 200 µM.

Consider `COC(=O)[C@]12CSC[C@H]1C[C@H](c1ccc(N(C)C)cc1)N2`, for which the EC50 is more than 200 µM and the IC50 was more than 200 µM. For `CCN(CC)c1ccc(N=Nc2ccc(-c3nc4cccn(C)c-4n3)cc2)cc1`, the EC50 is more than 7.41 µM and the IC50 was more than 7.41 µM. As to `O=C(O)c1c(O)c2cc([N+](=O)[O-])ccc2oc1=O`, the EC50 is more than 324 µM and the IC50 is more than 324 µM.

As to `CC(C)/C=N\N1C(N)=C(C#N)C(C#N)(C#N)C1C(C)C` (stereo not drawn), the EC50 is more than 200 µM and the IC50 amounted to 41.7 µM. As to `CN(C)CCc1c2c(nc3ccccc13)C(=O)c1cccnc1C2=O`, the result was inactive. On to `CCN1C(=O)c2cc(=O)[nH]c(O)c2C1C` (stereo not drawn), for which the EC50 was more than 468 µM and the IC50 is more than 468 µM. On to `CC(=S)NNC(=O)c1ccncc1`, for which the EC50 was more than 1290 µM and the IC50 came to 135 µM. As to `O=C1c2cccc3cccc(c23)C(=O)N1CC1CCCO1` (stereo not drawn), the result was inactive. For `O=C(CNc1nncs1)NO`, the EC50 was more than 1450 µM and the IC50 is 162 µM.

Take `COc1ccc(/C=C2/C(=O)N(/C=C3\C(=O)Oc4ccccc4C3=O)C(=NC(C)=O)N2C)cc1OC`: the EC50 is more than 200 µM and the IC50 was determined as 126 µM. With `COC(=O)[C@]1(c2ccc(N(C)C)cc2OC)C[C@@H]2CCCN(CCc3c1[nH]c1ccccc31)C2`, the outcome was inactive. With `NC(=O)N/N=C/C(/C=N/NC(N)=O)[N+](=O)[O-]`, the EC50 is more than 112 µM and the IC50 is more than 112 µM. For `COc1ccc(Cl)cc1C(=O)c1cc(Cl)cc(S(=O)(=O)N(C)C)c1OC`, the EC50 was more than 9.12 µM and the IC50 turned out to be 8.13 µM.

Turning to `NC(CSS(=O)(=O)O)=NC1CCCCC1`, the EC50 was more than 200 µM and the IC50 stood at 138 µM.
